Assays:
Type in all cases: physicochemical
[1] = Equilibrium desiccator analysis at 75-80% RH; settings: 75 to 80% RH at 18-23° C., after 1 h
[2] = Stability of the reaction mixture at reflux in IPA with/without ascorbic acid-6-palmitate (HPLC); settings: solution at reflux with ascorbic acid-6-palmitate
Experimental: In this case, the base was added under reflux and the procedure compared with and without ascorbic acid-6-palmitate as an antioxidant (Table 7).

[3] = Process hold-point stability (purity profile)
Experimental: An optimized non-aqueous procedure is provided below and shown in Scheme 4. • 1. Add apomorphine hydrochloride (1.0 wt), ascorbic acid-6-palmitate (0.01 wt), IPA (30 vol) and stir at 18-23° C. • 2. Vacuum/nitrogen purge the vessel 3× at 18-23° C. and place under a flow of nitrogen. • 3. Heat the slurry to 60-65° C. • 4. Add 3-amino-1-propanol (1.1 eq, 0.25 vol) maintaining 60-70° C. (target 60-65° C.). • 5. As required, cool the reaction mixture to 60-65° C. […] Stir for 15-20 minutes and check for full dissolution. • 7. On full dissolution, clarify the reaction mixture through a ≦1 μm filter and line rinse with IPA (3 vol) at 60-65° C. (Note: the reaction solution is highly unstable to air while hot, therefore total exclusion of air is required.) • 8. Concentrate the reaction mixture under reduced pressure to approximately 10 vol maintaining 55-65° C. • 9. […] Cool the slurry to 68-71° C. and age for 1 h (crystallization is expected during the cool down period approximately 72° C.). • 11. Slow the stirring for the remainder of the preparation to the minimum effective rate and check for crystallization: if crystallization has not occurred, seed the reaction with 0.1 wt % of seeds and age for 1 h. • 12. Cool the slurry to 18-23° C. over 5-6 h at an approximately constant rate. • 13. Age the slurry at 18-23° C. for 2-16 h. • 14. […]

## CN1CCc2cccc3c2[C@H]1Cc1ccc(O)c(O)c1-3 [A0505-110-D1, apomorphine free base]
[1]
  Weight increase: 2.0 % w/w

## CN1CCc2cccc3c2C1Cc1ccc(O)c(O)c1-3 (stereo not shown) [A0513-98-01]
[2]
  % area: RRT 1.00: 99.83 % area
  % area: RRT 1.25: 0.04 % area
  % area: RRT 1.71: 0.06 % area
  % area: RRT 1.76: 0.04 % area
[3]; reaction mixture held 2 h at reflux (83° C.)
  Change in purity profile: no significant change

## CC(C)O.CN1CCc2cccc3c2C1Cc1ccc(O)c(O)c1-3 (stereo not shown) [A0513-126, apomorphine free base IPA solvate]
[3]; distillation over 6 h at 60-65° C.
  Change in purity profile of the material isolated: no significant change
